Patent US11149008B2, “Sulfamide derivatives and preparation method and use thereof” (HitGen Ltd., priority 2015, dated 2021)

What was measured:
HDAC 6 = molecular target: T1, HDAC 6 (Homo sapiens, UniProt Q9UBN7); assay: Enzyme activity detection of histone deacetylase 6 (fluorogenic substrate deacetylation); format: biochemical; conditions: 0.35 ng/μL HDAC 6, 20 μM substrate, 30 min at 37° C.; IC50 class
T1 construct: purchased BPS Bioscience #50076
T1 sequence (Q9UBN7 1-1215): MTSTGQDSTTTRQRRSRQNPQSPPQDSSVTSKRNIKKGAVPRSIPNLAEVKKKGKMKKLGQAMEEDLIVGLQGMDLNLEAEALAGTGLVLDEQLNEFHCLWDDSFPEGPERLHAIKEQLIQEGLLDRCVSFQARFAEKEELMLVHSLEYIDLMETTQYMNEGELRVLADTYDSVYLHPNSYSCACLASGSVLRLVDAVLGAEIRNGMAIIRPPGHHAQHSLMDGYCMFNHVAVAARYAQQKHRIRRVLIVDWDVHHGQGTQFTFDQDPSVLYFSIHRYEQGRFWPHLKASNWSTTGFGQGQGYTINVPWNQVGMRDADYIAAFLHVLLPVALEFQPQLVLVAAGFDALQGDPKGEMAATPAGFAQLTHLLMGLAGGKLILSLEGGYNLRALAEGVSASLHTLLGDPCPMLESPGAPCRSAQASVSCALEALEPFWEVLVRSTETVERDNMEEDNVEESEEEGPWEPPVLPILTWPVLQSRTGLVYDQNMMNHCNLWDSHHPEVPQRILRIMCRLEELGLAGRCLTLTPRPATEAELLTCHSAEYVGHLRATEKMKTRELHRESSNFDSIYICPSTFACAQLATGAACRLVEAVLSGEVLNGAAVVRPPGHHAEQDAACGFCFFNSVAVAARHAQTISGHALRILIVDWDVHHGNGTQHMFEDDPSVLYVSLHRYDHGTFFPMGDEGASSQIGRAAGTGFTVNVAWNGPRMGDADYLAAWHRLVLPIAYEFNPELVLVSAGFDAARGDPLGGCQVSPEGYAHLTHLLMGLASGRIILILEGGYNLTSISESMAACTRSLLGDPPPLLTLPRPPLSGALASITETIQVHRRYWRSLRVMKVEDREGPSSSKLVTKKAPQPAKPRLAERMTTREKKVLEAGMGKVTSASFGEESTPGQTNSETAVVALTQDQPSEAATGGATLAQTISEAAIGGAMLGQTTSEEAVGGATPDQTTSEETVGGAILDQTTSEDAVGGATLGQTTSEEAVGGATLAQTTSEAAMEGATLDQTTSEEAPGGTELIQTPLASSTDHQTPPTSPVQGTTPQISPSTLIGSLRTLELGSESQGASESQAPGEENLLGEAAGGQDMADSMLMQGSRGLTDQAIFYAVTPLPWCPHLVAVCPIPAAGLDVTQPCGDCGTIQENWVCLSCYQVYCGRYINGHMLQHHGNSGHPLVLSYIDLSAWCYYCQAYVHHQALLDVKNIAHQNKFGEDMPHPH
From the text: (§1) During the deacetylation detection of a substrate, the HDAC inhibition activity of the compound of the present invention was detected.
A: Enzyme Activity Detection of Histone Deacetylase 6 (#50076, BPS Bioscience)
(§2) Acetyl on the substrate was removed by the HDAC 6, so that the substrate was activated, and the developing liquid added subsequently could act on the substrate to release the fluorescent group. The size of the fluorescence signal reflected the activity of the HDAC 6. The IC50 detection method for this enzyme was disclosed in Chuping Xu, Elisabetta Soragni Improved Histone Deacetylase Inhibitors as Therapeutics for the Neurdegenerative Disease Friedreich's Ataxia: A New Synthetic Route. The total reaction system (100 μL/well) contained 0.35 ng/μL of HDAC 6, 20 μM of the substrate and the compound in different concentrations. The reaction system was incubated for 30 min at 37° C., and the fluorescence signal was then measured. The inhibition effect of the compound was determined from the obtained data, a concentration response curve was obtained by using the inhibition effect and the concentration of the compound, and the value of IC50 was fitted according to a four-parameter model.
(§3) The activities of the compounds prepared in the embodiments against the histone deacetylases 1, 3 and 6 (i.e., HDAC 1, HDAC 3 and HDAC 6) were detected by the above methods, and the test results were shown in Table 2, where the measurements of IC50 of the compounds were classified according to the following description: […]

HepG2 cells = assay: Cell growth inhibition measurement (CCK-8), HepG2; format: cell-based; conditions: Homo sapiens, HepG2, 72 h, highest EC50 measured during one or multiple operations, read-out: Inhibition activity against cancer cells, HepG2 (EC50)
From the text: (§4) A HepG2 cell strain and an HCT-116 cell strain were purchased from Shanghai Institutes for Biological Sciences; a DMEM high-sugar culture medium and an MEM culture medium were purchased from Hyclone; fetal calf serum was purchased from Gibco; trypsin was purchased from Invitrogen Shanghai; a CCK-8 kit was purchased from Beyotime Institute of Biotechnology; and, the remaining cell culture mediums and other consumables were purchased from Corning China.
(§5) HepG2 cells and HCT-116 cells in the logarithmic growth phase were digested by trypsin. After the counting of uniform cell suspension, the cell density was adjusted as 1500 cells/well by a culture medium containing 10% serum. The cells were re-inoculated to a 96-well cell culture plate, and cultured to a volume of 200 μL at 37° C. in an incubator containing 5% CO2. The cells could be tested after being cultured for 24 h.
(§6) The cells cultured for 24 h were taken out from the incubator. The culture liquid in the well plate was sucked out, and 200 μL of compound solution prepared in the culture medium containing 10% fetal calf serum was added in each well. Five parallel mediums were provided for each concentration, and a DMSO culture medium was used as negative control. The culture mediums were cultured for 72 h at 37° C. in an incubator containing 5% CO2, and CCK-8 detection was performed.
(§7) A serum-free culture medium and CCK-8 solution were prepared, and CCK-8 working solution was prepared at a ratio of 10:1 (this process should be performed in dark place).
(§8) The cells cultured for 72 h were taken out from the incubator. The culture liquid in the well plate was sucked out, and 120 μL of the CCK-8 working solution was added in each well. A well plate without cells was also added with 120 μL of the CCK-8 working solution to serve as blank control. The well plates were cultured for 1 h at 37° C. in an incubator containing 5% CO2 (this process should be performed in dark place).
(§9) The well plates were taken out from the incubator, 100 μL of solution in each well was sucked out and added in a new 96-well plate, and the absorbance was measured at 450 nm (this process should be performed in dark place).
(§10) where Tx is the absorbance of the CCK-8 after the compound acts for 72 h;
(§11) C is the absorbance of the CCK-8 after the negative control wells are cultured for 72 h; and
(§12) B is the absorbance of the CCK-8 in the blank control wells.
(§13) The test results of the compounds prepared according to the embodiments during the measurement are shown in Table 3, wherein the measured highest EC50 of the compounds during one operation or multiple operations is classified according to the following description: […]

HDAC 1 = HDAC 1 (Homo sapiens, UniProt Q13547); assay: Enzyme activity detection of histone deacetylase 1 (fluorogenic substrate deacetylation); format: biochemical; conditions: 0.28 ng/μL HDAC 1, 10 μM substrate; IC50 class
Chain of HDAC 1 (Q13547 whole entry, species assumed): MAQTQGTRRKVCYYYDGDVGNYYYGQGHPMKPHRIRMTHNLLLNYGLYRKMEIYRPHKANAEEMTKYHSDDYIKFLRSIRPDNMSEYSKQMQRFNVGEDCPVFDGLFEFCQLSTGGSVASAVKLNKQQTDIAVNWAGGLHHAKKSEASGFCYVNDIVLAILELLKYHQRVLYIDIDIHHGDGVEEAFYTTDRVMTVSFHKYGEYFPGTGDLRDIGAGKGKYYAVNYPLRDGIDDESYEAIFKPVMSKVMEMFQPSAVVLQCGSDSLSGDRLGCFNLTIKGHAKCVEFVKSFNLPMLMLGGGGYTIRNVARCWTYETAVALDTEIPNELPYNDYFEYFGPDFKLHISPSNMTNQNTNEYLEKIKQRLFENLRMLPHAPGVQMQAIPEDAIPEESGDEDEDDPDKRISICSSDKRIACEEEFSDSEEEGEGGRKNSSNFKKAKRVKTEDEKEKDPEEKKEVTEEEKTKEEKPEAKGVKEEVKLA
From the text: as §1
C: Enzyme Activity Detection of Histone Deacetylase 1
as §2, with “1,” for “6,”, “1.” for “6.”, “0.28” for “0.35”, “1, 10” for “6, 20”, “The” for “The reaction system was incubated for 30 min at 37° C., and the”, “detected online at Ex/Em=360/460.” for “then measured.”
as §3

HCT-116 cells = assay: Cell growth inhibition measurement (CCK-8), HCT-116; format: cell-based; conditions: Homo sapiens, HCT-116, 72 h, highest EC50 measured during one or multiple operations, read-out: Inhibition activity against cancer cells, HCT-116 (EC50)
From the text: as §4, §5, §6, §7, §8, §9, §10, §11, §12, §13

HDAC 3 = molecular target: T2, HDAC 3 (Homo sapiens, UniProt O15379); assay: Enzyme activity detection of histone deacetylase 3 (fluorogenic substrate deacetylation); format: biochemical; conditions: 0.16 ng/μL HDAC 3, 10 μM substrate; IC50 class
T2 construct: purchased BPS Bioscience #50003
T2 sequence (O15379 whole entry): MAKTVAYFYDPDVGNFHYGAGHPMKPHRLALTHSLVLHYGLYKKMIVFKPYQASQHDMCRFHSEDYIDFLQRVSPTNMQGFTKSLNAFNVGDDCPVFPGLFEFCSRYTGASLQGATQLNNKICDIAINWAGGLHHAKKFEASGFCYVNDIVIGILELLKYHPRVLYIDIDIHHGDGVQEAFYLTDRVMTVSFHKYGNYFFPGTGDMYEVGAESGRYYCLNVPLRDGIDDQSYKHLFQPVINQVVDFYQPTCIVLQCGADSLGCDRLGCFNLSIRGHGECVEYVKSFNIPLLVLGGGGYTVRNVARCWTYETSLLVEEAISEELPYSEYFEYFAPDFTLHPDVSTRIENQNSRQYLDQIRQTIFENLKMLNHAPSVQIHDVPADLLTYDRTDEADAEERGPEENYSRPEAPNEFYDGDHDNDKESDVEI
T2 sequence (Q9Y618 395-489 partner limits assumed): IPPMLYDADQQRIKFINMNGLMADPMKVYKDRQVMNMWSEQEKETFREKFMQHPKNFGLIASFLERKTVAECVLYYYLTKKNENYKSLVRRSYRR
From the text: as §1
B: Enzyme Activity Detection of Histone Deacetylase 3 (#50003, BPS Bioscience)
as §2, with “3,” for “6,”, “3.” for “6.”, “0.16” for “0.35”, “3, 10” for “6, 20”, “The” for “The reaction system was incubated for 30 min at 37° C., and the”, “detected online at Ex/Em=360/460.” for “then measured.”
as §3

| SMILES | IC50 (HDAC 6) | EC50 (HepG2 cells) | IC50 (HDAC 1) | EC50 (HCT-116 cells) | IC50 (HDAC 3) |
| --- | --- | --- | --- | --- | --- |
| O=C(NO)C1=CCN(S(=O)(=O)c2ccc(-c3ccc(CN4CCCCC4)cc3)cc2)CC1 [Compound 19, N-hydroxyl-1-((4′-(piperidine-1-ylmethyl)-[1,1′-biphenyl]-4-yl)sulfonyl)-1,2,3,6-tetrahydropyridine-4-formamide] | < 100 nM | < 100 nM | < 100 nM | < 100 nM | – |
| O=C(NO)C1=CCN(S(=O)(=O)c2ccc(-c3ccc(O)cc3)cc2)CC1 [Compound 2, N-hydroxyl-1-((4′-hydroxyl-[1,1′-biphenyl]-4-yl)sulfonyl)-1,2,3,6-tetrahydropyridine-4-formamide] | < 100 nM | < 100 nM | – | – | 100 to 500 nM |
| CN1CCN(c2ccc(-c3ccc(S(=O)(=O)N4CCC=C(C(=O)NO)CC4)cc3)cc2)CC1 [Compound 44, N-hydroxyl-1-((4′-(4-methylpiperazine-1-yl)-[1,1′-biphenyl]-4-yl)sulfonyl)-2,3,6,7-tetrahydro-1H-aza-4-formamide] | < 100 nM | > 100 nM | 100 to 500 nM | – | 100 to 500 nM |
| O=C(NO)C1=CCN(S(=O)(=O)c2ccc(-c3cnn(C4CCNCC4)c3)cc2)CC1 [Compound 1, N-hydroxyl-1-((4-(1-(piperidine-4-yl)-1H-pyrazol-4-yl)phenyl)sulfonyl)-1,2,3,6-tetrahydropyridine-4-formamide] | < 100 nM | > 100 nM | – | – | 100 to 500 nM |
